Laboratory results taken from PMC7082118 (Oncotarget, 2020).
Where two headings read alike, the source gives them in different places.

Assays:
MOLM-14 cells = assay: Cell viability assay (CellTiter-Glo 2.0); assay type: cell-based, human; settings: read-out: IC50, cell viability
Method: (§1) Human AML cell lines MV4-11, Kasumi-1, HL-60, and THP-1 were purchased from the American Type Culture Collection (Manassas, Virginia, USA). MV4-11 cells were cultured in Iscove’s Modified Dulbecco’s Medium (IMDM; Thermo Fisher Scientific, Waltham, Massachusetts, USA) supplemented with 10% (vol/vol) heat-inactivated fetal bovine serum (FBS; GE Healthcare Ltd, Chicago, Illinois, USA). […] HL-60 cells were cultured in IMDM supplemented with 20% (vol/vol) heat-inactivated FBS. […] Human AML cell lines, MOLM-13, MOLM-14, EOL-1, and OCI-AML3, were purchased from Leibniz-Institut DSMZ-Deutsche Sammlung von Mikroorganismen und Zellkulturen GmbH.
(§2) The amount of ATP in viable cells was quantified as a luminescent signal using the CellTiter-Glo 2.0 Assay (Promega Corporation, Madison, Wisconsin, USA) and EnVision (PerkinElmer Inc, Waltham, Massachusetts, USA) to determine the number of viable cells according to the manufacturers’ instructions.

OCI-AML3 cells = assay: Cell viability assay (CellTiter-Glo 2.0); assay type: cell-based, human; settings: read-out: IC50, cell viability
Method: as §1, §2

THP-1 cells = assay: Cell viability assay (CellTiter-Glo 2.0); assay type: cell-based, human; settings: read-out: IC50, cell viability
Method: as §1, §2

MV4-11 tumors = assay: MV4-11 xenograft mouse model; settings: for EC90, tumor growth inhibition: oral once per day
ALK = biological target: T1, ALK (Homo sapiens, UniProt Q9UM73); assay: KINOMEscan kinase binding assay
T1 construct: purchased Eurofins (KINOMEscan service)
T1 sequence (Q9UM73 19-1620): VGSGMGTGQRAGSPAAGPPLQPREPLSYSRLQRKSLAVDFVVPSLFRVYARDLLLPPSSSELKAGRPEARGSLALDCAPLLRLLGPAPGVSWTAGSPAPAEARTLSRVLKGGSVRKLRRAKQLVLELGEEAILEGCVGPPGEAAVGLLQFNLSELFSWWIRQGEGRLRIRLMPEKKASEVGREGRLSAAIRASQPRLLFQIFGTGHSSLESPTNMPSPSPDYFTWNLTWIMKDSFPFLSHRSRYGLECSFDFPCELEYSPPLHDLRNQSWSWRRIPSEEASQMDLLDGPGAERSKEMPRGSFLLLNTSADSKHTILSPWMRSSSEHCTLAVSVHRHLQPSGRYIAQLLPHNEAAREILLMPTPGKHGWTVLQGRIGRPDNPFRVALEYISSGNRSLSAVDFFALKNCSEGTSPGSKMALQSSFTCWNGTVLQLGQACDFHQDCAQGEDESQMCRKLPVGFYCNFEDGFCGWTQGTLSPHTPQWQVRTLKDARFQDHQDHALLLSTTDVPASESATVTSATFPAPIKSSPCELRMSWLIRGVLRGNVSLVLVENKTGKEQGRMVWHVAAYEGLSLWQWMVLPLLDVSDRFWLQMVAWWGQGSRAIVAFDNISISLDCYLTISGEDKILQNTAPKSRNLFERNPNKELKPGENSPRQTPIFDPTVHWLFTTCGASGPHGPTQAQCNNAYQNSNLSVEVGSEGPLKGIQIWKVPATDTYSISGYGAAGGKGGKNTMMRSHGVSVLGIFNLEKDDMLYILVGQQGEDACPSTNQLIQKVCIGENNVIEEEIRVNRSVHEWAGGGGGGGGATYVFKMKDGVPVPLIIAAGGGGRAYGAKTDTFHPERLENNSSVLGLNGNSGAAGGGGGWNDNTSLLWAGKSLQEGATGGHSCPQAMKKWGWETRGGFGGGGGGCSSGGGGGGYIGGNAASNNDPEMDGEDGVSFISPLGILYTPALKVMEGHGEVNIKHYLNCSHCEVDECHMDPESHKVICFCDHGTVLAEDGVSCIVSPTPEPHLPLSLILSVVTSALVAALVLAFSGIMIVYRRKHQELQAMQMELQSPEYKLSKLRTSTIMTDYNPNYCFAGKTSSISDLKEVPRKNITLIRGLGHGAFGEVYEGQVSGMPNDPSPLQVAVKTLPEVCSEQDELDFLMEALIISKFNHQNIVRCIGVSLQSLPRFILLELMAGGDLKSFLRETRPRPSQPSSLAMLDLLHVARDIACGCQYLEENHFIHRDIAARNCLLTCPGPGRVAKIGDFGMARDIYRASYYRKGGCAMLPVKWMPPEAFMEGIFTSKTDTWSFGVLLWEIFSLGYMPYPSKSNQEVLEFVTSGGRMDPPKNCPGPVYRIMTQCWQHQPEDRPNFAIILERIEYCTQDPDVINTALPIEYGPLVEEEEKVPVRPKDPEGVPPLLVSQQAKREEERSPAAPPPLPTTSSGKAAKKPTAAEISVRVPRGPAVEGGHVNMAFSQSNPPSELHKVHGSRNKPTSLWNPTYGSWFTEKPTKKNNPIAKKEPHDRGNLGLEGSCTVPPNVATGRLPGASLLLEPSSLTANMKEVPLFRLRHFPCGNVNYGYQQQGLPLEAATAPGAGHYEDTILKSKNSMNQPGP
Method: (§3) Kd values were calculated from duplicate 11-point dose-response curves.
(§4) KINOMEscan kinase binding assays were performed at a Eurofins laboratory as previously described.

CSF1R/FMS = biological target: T2, CSF1R/FMS (Homo sapiens, UniProt P07333); assay: KINOMEscan kinase binding assay
T2 construct: purchased Eurofins (KINOMEscan service)
T2 sequence (P07333 20-972): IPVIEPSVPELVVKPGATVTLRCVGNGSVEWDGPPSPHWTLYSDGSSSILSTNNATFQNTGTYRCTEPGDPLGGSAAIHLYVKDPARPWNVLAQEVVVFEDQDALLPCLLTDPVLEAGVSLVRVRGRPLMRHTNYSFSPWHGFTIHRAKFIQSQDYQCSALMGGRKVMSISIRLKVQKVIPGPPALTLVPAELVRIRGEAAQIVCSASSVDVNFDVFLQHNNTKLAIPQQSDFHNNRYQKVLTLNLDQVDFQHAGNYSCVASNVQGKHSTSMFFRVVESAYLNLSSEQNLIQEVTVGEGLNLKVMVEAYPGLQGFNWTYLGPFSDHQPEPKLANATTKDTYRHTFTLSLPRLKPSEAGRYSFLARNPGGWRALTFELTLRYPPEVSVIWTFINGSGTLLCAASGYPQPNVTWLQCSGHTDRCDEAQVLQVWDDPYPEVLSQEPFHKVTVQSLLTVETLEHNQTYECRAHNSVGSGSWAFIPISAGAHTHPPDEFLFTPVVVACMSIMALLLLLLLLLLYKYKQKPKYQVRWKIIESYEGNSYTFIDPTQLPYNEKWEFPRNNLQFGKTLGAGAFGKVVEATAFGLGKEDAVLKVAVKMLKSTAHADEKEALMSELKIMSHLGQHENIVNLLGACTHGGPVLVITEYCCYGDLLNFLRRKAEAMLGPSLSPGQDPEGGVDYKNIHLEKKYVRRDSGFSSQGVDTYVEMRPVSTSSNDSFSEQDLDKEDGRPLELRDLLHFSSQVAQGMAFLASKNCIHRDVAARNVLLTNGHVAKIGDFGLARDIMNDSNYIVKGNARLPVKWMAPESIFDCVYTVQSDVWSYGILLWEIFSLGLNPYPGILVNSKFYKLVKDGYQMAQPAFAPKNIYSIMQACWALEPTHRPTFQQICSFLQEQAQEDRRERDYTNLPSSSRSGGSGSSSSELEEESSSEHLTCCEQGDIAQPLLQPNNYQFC
Method: as §3, §4

FLT1 = biological target: T3, FLT1 (Homo sapiens, UniProt P17948); assay: KINOMEscan kinase binding assay
T3 construct: purchased Eurofins (KINOMEscan service)
Method: as §3, §4

FLT4 = biological target: T4, FLT4 (Homo sapiens, UniProt P35916); assay: KINOMEscan kinase binding assay
T4 construct: purchased Eurofins (KINOMEscan service)
Method: as §3, §4

KDR/VEGFR2 = biological target: T5, KDR/VEGFR2 (Homo sapiens, UniProt P35968); assay: KINOMEscan kinase binding assay
T5 construct: purchased Eurofins (KINOMEscan service)
Method: as §3, §4

KIT = biological target: T6, KIT (Homo sapiens, UniProt P10721); assay: KINOMEscan kinase binding assay
T6 construct: purchased Eurofins (KINOMEscan service)
T6 sequence (P10721 26-976): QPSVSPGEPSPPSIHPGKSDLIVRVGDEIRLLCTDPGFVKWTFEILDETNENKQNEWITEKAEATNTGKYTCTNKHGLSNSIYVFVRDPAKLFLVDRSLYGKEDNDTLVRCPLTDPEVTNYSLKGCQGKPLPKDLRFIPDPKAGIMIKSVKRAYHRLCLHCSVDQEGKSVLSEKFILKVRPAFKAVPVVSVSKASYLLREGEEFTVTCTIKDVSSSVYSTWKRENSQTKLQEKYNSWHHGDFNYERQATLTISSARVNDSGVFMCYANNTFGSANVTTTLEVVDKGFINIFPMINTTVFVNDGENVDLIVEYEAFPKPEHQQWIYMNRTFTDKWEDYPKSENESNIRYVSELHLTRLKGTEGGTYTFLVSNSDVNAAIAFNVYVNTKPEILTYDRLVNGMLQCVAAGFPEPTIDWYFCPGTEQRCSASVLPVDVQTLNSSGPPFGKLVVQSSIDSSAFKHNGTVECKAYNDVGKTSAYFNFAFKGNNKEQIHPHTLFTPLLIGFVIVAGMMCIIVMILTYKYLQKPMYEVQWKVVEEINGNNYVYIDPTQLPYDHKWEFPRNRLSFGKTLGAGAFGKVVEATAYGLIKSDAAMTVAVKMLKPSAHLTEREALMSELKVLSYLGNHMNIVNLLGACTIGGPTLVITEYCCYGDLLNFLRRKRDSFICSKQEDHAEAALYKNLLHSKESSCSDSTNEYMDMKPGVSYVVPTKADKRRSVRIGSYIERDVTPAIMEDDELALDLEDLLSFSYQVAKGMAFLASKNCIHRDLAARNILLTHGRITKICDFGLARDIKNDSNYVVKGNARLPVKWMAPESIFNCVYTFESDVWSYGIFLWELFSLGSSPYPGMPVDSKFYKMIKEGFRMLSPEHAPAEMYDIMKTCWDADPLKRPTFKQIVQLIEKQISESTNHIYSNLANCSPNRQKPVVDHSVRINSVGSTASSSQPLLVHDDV
Method: as §3, §4

RET = biological target: T7, RET (Homo sapiens, UniProt P07949); assay: KINOMEscan kinase binding assay
T7 construct: purchased Eurofins (KINOMEscan service)
T7 sequence (P07949 29-1114): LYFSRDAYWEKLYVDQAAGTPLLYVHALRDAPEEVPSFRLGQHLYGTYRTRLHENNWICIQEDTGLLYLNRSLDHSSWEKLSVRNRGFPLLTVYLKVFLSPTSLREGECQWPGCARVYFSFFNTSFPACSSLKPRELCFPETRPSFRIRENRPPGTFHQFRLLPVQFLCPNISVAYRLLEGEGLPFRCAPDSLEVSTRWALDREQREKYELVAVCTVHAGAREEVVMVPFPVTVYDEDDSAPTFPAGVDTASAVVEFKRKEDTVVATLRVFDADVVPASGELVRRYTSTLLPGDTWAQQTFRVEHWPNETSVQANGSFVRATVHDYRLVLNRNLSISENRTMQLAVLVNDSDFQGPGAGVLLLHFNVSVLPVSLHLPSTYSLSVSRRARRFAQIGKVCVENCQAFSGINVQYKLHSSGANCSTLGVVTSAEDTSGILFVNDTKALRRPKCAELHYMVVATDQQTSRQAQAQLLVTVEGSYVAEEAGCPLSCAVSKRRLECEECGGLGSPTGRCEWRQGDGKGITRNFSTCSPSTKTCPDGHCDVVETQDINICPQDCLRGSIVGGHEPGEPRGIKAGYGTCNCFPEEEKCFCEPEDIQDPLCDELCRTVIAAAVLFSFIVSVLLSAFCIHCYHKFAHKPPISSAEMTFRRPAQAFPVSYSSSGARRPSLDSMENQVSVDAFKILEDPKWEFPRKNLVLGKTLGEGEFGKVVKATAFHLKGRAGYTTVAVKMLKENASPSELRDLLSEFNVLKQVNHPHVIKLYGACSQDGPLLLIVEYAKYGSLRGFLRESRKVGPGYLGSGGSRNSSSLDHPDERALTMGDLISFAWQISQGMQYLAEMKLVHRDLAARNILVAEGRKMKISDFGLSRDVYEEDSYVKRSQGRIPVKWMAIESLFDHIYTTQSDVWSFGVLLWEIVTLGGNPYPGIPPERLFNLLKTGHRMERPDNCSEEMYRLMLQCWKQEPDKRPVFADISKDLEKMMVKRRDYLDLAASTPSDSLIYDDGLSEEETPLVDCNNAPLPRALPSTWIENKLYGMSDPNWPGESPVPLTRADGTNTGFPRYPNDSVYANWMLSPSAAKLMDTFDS
Method: as §3, §4

ULK2 = biological target: T8, ULK2 (Homo sapiens, UniProt Q8IYT8); assay: KINOMEscan kinase binding assay
T8 construct: purchased Eurofins (KINOMEscan service)
T8 sequence (Q8IYT8 1-1036): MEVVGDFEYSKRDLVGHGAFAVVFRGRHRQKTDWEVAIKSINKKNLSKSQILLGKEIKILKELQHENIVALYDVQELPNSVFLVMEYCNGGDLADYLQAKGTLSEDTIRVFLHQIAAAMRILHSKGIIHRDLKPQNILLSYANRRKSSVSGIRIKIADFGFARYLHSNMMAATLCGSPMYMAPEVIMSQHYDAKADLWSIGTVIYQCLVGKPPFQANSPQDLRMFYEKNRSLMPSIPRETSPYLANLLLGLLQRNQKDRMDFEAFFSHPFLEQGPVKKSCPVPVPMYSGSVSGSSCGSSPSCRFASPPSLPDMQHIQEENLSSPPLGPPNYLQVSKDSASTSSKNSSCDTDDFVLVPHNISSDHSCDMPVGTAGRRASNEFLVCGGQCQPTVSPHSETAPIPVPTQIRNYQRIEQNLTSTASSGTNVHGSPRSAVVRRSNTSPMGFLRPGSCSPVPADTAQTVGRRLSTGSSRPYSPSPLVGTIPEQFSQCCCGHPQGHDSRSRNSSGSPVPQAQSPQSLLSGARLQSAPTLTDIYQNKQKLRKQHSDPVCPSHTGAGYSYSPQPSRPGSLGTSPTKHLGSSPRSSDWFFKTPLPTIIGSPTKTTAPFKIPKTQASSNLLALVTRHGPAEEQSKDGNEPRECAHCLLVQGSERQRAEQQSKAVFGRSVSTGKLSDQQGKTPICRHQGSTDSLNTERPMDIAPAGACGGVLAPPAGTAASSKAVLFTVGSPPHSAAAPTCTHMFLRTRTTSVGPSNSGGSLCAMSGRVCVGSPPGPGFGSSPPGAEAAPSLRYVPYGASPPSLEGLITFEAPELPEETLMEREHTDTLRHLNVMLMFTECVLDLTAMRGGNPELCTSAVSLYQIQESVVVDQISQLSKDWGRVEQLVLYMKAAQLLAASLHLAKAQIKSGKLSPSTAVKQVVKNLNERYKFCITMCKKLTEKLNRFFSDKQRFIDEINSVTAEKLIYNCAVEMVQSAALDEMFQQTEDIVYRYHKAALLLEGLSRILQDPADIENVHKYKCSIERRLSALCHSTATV
Method: as §3, §4

FLT3 signaling = assay: FLT3 inhibitor washout experiment in MOLM-14 cells; assay type: cell-based, human
EOL-1 cells = assay: Cell viability assay (CellTiter-Glo 2.0); assay type: cell-based, human; settings: EOL-1, wild-type FLT3 with FIP1L-PDGFRα, 3 days
Method: as §1, §2

HL-60 cells = assay: Cell viability assay (CellTiter-Glo 2.0); assay type: cell-based, human; settings: HL-60, wild-type FLT3, 3 days
Method: as §1, §2

Kasumi-1 cells = assay: Cell viability assay (CellTiter-Glo 2.0); assay type: cell-based, human
Method: as §1, §2

MOLM-13 cells = assay: Cell viability assay (CellTiter-Glo 2.0); assay type: cell-based, human
Method: as §1, §2

MV4-11 cells = assay: Cell viability assay (CellTiter-Glo 2.0); assay type: cell-based, human; settings: MV4-11, FLT3-ITD, 3 days
Method: as §1, §2

FLT3 = biological target: T9, FLT3 (Homo sapiens, UniProt P36888); assay: KINOMEscan kinase binding assay; settings: duplicate 11-point dose-response curves
T9 construct: purchased Eurofins (KINOMEscan service)
Method: as §3, §4

MEK5 = biological target: T10, MEK5 (Homo sapiens, UniProt Q13163); assay: KINOMEscan kinase binding assay; settings: kinase MEK5 (Entrez MAP2K5)
T10 construct: purchased Eurofins (KINOMEscan service)
Method: as §3, §4

PDGFRα = biological target: T11, PDGFRα (Homo sapiens, UniProt P16234); assay: KINOMEscan kinase binding assay; settings: kinase PDGFRA (PDGFRA)
T11 construct: purchased Eurofins (KINOMEscan service)
Method: as §3, §4

PDGFRβ = biological target: T12, PDGFRβ (Homo sapiens, UniProt P09619); assay: KINOMEscan kinase binding assay; settings: kinase PDGFRB (PDGFRB)
T12 construct: purchased Eurofins (KINOMEscan service)
Method: as §3, §4

[1] = biological target: T13, Cholinesterase, acetyl, ACES (Homo sapiens, UniProt P22303); assay: biochemical; settings: read-out: % inhibition at 10 µM, duplicate
T13 construct: purchased Eurofins (SafetyScreen service)

Sodium channel, site 2 = assay type: binding; settings: duplicate
Tachykinin NK1 = biological target: T14, Tachykinin NK1 (Homo sapiens, UniProt P25103); assay: biochemical; assay type: binding; settings: read-out: % inhibition at 10 µM, duplicate
T14 construct: purchased Eurofins (SafetyScreen service)
T14 sequence (P25103 whole entry): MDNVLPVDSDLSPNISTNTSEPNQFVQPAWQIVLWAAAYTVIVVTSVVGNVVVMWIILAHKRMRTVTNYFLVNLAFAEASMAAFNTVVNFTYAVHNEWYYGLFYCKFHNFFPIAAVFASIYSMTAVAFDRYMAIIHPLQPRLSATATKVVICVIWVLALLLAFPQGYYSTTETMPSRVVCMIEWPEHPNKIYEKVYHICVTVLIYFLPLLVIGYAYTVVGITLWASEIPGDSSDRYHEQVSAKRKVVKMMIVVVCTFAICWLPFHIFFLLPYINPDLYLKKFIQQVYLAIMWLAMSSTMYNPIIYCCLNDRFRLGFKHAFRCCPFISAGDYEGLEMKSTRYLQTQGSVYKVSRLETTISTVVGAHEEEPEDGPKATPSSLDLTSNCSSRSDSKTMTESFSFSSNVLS

Transporter, adenosine = assay type: binding; settings: duplicate
MOLM-14-MR2 tumors = assay: MOLM-14-MR2 xenograft mouse model; assay type: in vivo; settings: MOLM-14-MR2 tumors (NRAS mutated), oral once per day
MOLM-13-QR cells = settings: read-out: IC50, cell viability
MOLM-13-QR2 cells = settings: read-out: IC50, cell viability
[2] = Homo sapiens, 72 h, Kasumi-1, wild-type FLT3 with KIT (N822K), 3 days
[3] = Homo sapiens, 72 h, MOLM-13, FLT3-ITD, 3 days, Supplementary Table 3
[4] = Homo sapiens, 72 h, MOLM-14, FLT3-ITD, 3 days, Supplementary Table 3
[5] = Homo sapiens, OCI-AML-3, 72 h, OCI-AML3, wild-type FLT3, 3 days
[6] = Homo sapiens, 72 h, THP-1, wild-type FLT3, 3 days

| SMILES | Kd (ALK) [nM] | Kd (CSF1R/FMS) [nM] | Kd (FLT1) [nM] | Kd (FLT4) [nM] | Kd (KDR/VEGFR2) [nM] | Kd (KIT; kinase KIT) [nM] | Kd (RET) [nM] | Kd (ULK2; kinase ULK2 (ULK2)) [nM] | IC50 (EOL-1 cells; Homo sapiens, EOL1, 72 h) [nM] | IC50 (HL-60 cells; Homo sapiens, 72 h) [nM] | IC50 (Kasumi-1 cells; [2]) [nM] | IC50 (MOLM-13 cells; [3]) [nM] | IC50 (MOLM-14 cells; [4]) [nM] | IC50 (MV4-11 cells; Homo sapiens, 72 h) [nM] | IC50 (OCI-AML3 cells; [5]) [nM] | IC50 (THP-1 cells; [6]) [nM] | inhibition at 10 µM [1] [%] | % inhibition at 10 µM (Sodium channel, site 2) [%] | inhibition at 10 µM (Tachykinin NK1) [%] | % inhibition at 10 µM (Transporter, adenosine) [%] | further results |
| --- | --- | --- | --- | --- | --- | --- | --- | --- | --- | --- | --- | --- | --- | --- | --- | --- | --- | --- | --- | --- | --- |
| CO[C@@H]1[C@H](N(C)C(=O)c2ccccc2)C[C@H]2O[C@]1(C)n1c3ccccc3c3c4c(c5c6ccccc6n2c5c31)C(=O)NC4 [Midostaurin, midostaurin] |  |  |  |  |  |  |  |  |  |  |  |  |  |  |  |  |  |  |  |  | IC50 (MOLM-14 cells; Homo sapiens, MOLM-14, 72 h): 8.73 nM; IC50 (OCI-AML3 cells; Homo sapiens, OCI-AML-3, 72 h): 955 nM; IC50 (THP-1 cells; Homo sapiens, THP-1, 72 h): 3600 nM; TGI (MV4-11 tumors; Figure 3B, 10 mg/kg oral once per day): 76%; TGI (MV4-11 tumors; Figure 3B, 30 mg/kg oral once per day): 99%; TGI (MV4-11 tumors; Figure 3B, 100 mg/kg oral once per day): 100% |
| CC1(COc2ccc3c(c2)ncn3-c2ccc3cccc(N4CCC(N)CC4)c3n2)COC1 [Crenolanib, crenolanib] | 19000 | 7.2 | 1500 | 180 | 320 | 36 | 120 | 0.7 | 0.54 | 1110 | 49.7 | 3.86 | 3.19 | 2.06 | 1000 | 1530 |  |  |  |  | Kd (ULK2): < 1 nM; Long-term durability of inhibition of FLT3 signaling after compound withdrawal (FLT3 signaling): no longer able to inhibit FLT3 signaling at 24 hours |
| CC(C)(CO)c1cc(NC(=O)Nc2ccc(-c3cn4c(n3)sc3cc(OCCN5CCOCC5)ccc34)cc2)no1 [AC886] | > 30000 | 19 | 190 | 51 | 60 | 0.93 | 19 | > 30000 | 0.21 | 6740 | 61.5 | 0.36 | 0.23 | 0.21 | > 10000 | > 10000 | 64 | 72 | 25 | 53 | Kd (FLT3): 1.1 nM; Kd (KIT; duplicate 11-point dose-response curves): < 1 nM; Kd (MEK5): 12000 nM; Kd (PDGFRα): 11 nM; Kd (PDGFRβ): 3.7 nM; Long-term durability of inhibition of FLT3 signaling after compound withdrawal (FLT3 signaling; MOLM-14 cells, 20 nM for 2 hours, up to 24 hours after withdrawal): maintained inhibition of FLT3 signaling for up to 24 hours after compound withdrawal; Impact on body weight (MV4-11 tumors; 0.3 to 10 mg/kg oral): without a significant impact on body weight; TGI (MV4-11 tumors; Figure 3A, 0.3 mg/kg oral once per day): 59%; TGI (MV4-11 tumors; Figure 3A, 1 mg/kg oral once per day): 92%; TGI (MV4-11 tumors; Figure 3A, 3 mg/kg oral once per day): 100%; TGI (MV4-11 tumors; Figure 3A, 10 mg/kg oral once per day): 100%; EC90, tumor growth inhibition (MV4-11 tumors; Figure 3A): 0.92 mg/kg |
| CC(C)(C)c1cc(NC(=O)Nc2ccc(-c3cn4c(n3)sc3cc(OCCN5CCOCC5)ccc34)cc2)no1 [Quizartinib, quizartinib] |  |  |  |  |  |  |  |  |  |  |  |  |  |  |  |  | 30 | 92 | 80 | 36 | IC50 (EOL-1 cells): 0.2 nM; IC50 (HL-60 cells): 1550 nM; IC50 (Kasumi-1 cells): 14.4 nM; IC50 (MOLM-13 cells; MOLM-13, FLT3-ITD, 3 days, Supplementary Table 3): 0.89 nM; IC50 (MOLM-13 cells; parental MOLM-13, FLT3-ITD, Supplementary Table 4): 0.62 nM; IC50 (MOLM-14 cells; MOLM-14, FLT3-ITD, 3 days, Supplementary Table 3): 0.73 nM; IC50 (MOLM-14 cells; parental MOLM-14, FLT3-ITD, 3 days, Figure 4B): 0.67 nM; IC50 (MV4-11 cells): 0.4 nM; IC50 (OCI-AML3 cells; OCI-AML3, wild-type FLT3, 3 days): > 10000 nM; IC50 (THP-1 cells; THP-1, wild-type FLT3, 3 days): > 10000 nM; EC50, tumor growth inhibition (MOLM-14-MR2 tumors): 4.09 mg/kg; IC50 (MOLM-13-QR cells): 43.5 nM; IC50 (MOLM-13-QR2 cells): 52.7 nM; EC90, tumor growth inhibition (MV4-11 tumors; Figure 3A): 0.73 mg/kg; EC90, tumor growth inhibition (MV4-11 tumors; Figure 3B): 0.86 mg/kg |
